What is called melting point is the temperature, or range, at which the solid turns liquid.

Where a name gives a salt, the structure may show the parent alone.

Results on 26 compounds are retold here after patent US8802664B2 (Bioproject, priority 2010, dated 2014).

For `CN1CCC(OC(c2cccc(OCCCN3CCN(C(=O)OC(C)(C)C)CC3)c2)c2nc3ccccc3[nH]2)CC1` (centres unmarked) (as salt: oxalate) [Example 360, 4-(3-{3-[(1H-benzimidazol-2-yl)(1-methylpiperidin-4-yloxy)methyl]phenoxy}propyl)piperazine-1-carboxylic acid tert-butyl ester], the melting point was 140 °C.
To `CN1CCC(OC(c2cccc(N3CCC(N)CC3)c2)c2nc3ccccc3s2)CC1` (centres unmarked) (as salt: oxalate) [Example 405, 1-{3-[benzothiazol-2-yl(1-methylpiperidin-4-yloxy)methyl]phenyl}piperidin-4-ylamine] belongs 137 °C.
The figure for `CCCOc1cccc(C(OC2CCN(C)CC2)c2nc3ccccc3s2)c1` (centres unmarked) (as salt: hydrochloride) [Example 26, 2-[(1-methylpiperidin-4-yloxy)(3-propoxy-phenyl)methyl]benzothiazole] is 59 °C.
To `CN1CCC(OC(c2cccc(OCCNCC(=O)OC(C)(C)C)c2)c2nc3ccccc3s2)CC1` (centres unmarked) (as salt: oxalate) [Example 370, (2-{3-[benzothiazol-2-yl(1-methylpiperidin-4-yloxy)methyl]phenoxy}ethylamino)acetic acid tert-butyl ester] belongs 136 °C; to `CN1CCC(OC(c2cccc(SC(C)(C)CCO)c2)c2nc3ccccc3s2)CC1` (centres unmarked) (as salt: oxalate) [Example 242, 3-{3-[benzothiazol-2-yl(1-methylpiperidin-4-yloxy)methyl]phenylsulfanyl}-3-methyl-butan-1-ol], 80 °C; to `CN1CCC(NC(c2cccc(OCCC3=CCC4CC3C4(C)C)c2)c2nc3ccccc3[nH]2)CC1` (centres unmarked) (as salt: oxalate) [Example 181, ((1H-benzimidazol-2-yl)-{3-[2-(6,6-dimethyl-bicyclo[3.1.1]hept-2-en-2-yl)ethoxy]phenyl}methyl)(1-methylpiperidin-4-yl)amine], 123 °C.
Consider `CN1CCC(OC(c2cccc(N3CCOCC3)c2)c2nc3ccccc3s2)CC1` (centres unmarked) (as salt: oxalate) [Example 243, 2-[(1-methylpiperidin-4-yloxy)(3-morpholin-4-yl-phenyl)methyl]benzothiazole], for which the melting point turned out to be 111 °C.
To `CN1CCC(OC(c2cccc(OCC3CCNCC3)c2)c2nc3ccccc3s2)CC1` (centres unmarked) (as salt: oxalate) [Example 377, 2-{(1-methylpiperidin-4-yloxy)[3-(piperidin-4-ylmethoxy)phenyl]methyl}benzothiazole] belongs 90 °C; to `CN1CCC(OC(c2nc3ccccc3s2)c2ccc(F)cc2F)CC1` (centres unmarked) (as salt: oxalate) [Example 12, 2-[(2,4-difluorophenyl)(1-methyl-piperidin-4-yloxy)methyl]-benzothiazole], 182 °C.
To `COc1ccc(-c2cccc(C(NC3CCN(C)CC3)c3nc4ccccc4s3)c2)cc1` (centres unmarked) (as salt: oxalate) [Example 211, [benzothiazol-2-yl(4′-methoxybiphenyl-3-yl)methyl](1-methylpiperidin-4-yl)amine] belongs 130 °C; to `CN1CCC(OC(c2cccc(C=CCCCO)c2)c2nc3ccccc3[nH]2)CC1` (centres unmarked) (as salt: oxalate) [Example 389, 5-{3-[(1H-benzimidazol-2-yl)(1-methylpiperidin-4-yloxy)methyl]phenyl}pent-4-en-1-ol], 125 °C; to `CCN1CCC(OC(c2cccc(OCCN)c2)c2nc3ccccc3s2)CC1` (centres unmarked) (as salt: oxalate) [Example 290, 2-{3-[benzothiazol-2-yl(1-ethyl-piperidin-4-yloxy)methyl]phenoxy}ethylamine], 112 °C.
To `CN1CCC(COC(c2cccc(C#CCCCN)c2)c2nc3cc(F)ccc3[nH]2)C1` (centres unmarked) (as salt: oxalate) [Example 462] belongs 200 °C; to `Cc1ccc(C(OC2CCN(C)CC2)c2nc3ccccc3[nH]2)c(Cl)c1` (centres unmarked) (as salt: oxalate) [Example 213, 2-[(2-chloro-4-methylphenyl)(1-methylpiperidin-4-yloxy)methyl]-1H-benzimidazole], 96 °C; to `CN1CCC(OC(c2nc3ccccc3[nH]2)c2cc(C#CCCCN)ccc2F)CC1` (centres unmarked) (as salt: oxalate) [Example 442], 139 °C.
For the compound `CN1CCC(NC(c2cccc(OCc3ccccc3F)c2)c2nc3ccccc3[nH]2)CC1` (centres unmarked) (as salt: oxalate) [Example 113, {(1H-benzimidazol-2-yl)[3-(2-fluorobenzyloxy)phenyl]methyl}(1-methylpiperidin-4-yl)amine], the melting point worked out at 118 °C.
To `CN1CCC(OC(c2cccc(OCCCl)c2)c2nc3ccccc3s2)CC1` (centres unmarked) (as salt: oxalate) [Example 354, 2-[[3-(2-Chloroethoxy)phenyl](1-methylpiperidin-4-yloxy)methyl]benzothiazole] belongs 70 °C; to `CN1CCC(OC(c2cccc(OCC3CCCN(C)C3)c2)c2nc3ccccc3s2)CC1` (centres unmarked) (as salt: oxalate) [Example 379, 2-[[3-(1-methylpiperidin-3-ylmethoxy)phenyl](1-methylpiperidin-4-yloxy)methyl]benzothiazole], 76 °C.
To `CN1CCC(NC(c2cccc(C#CCCCCN)c2)c2nc3ccccc3s2)CC1` (centres unmarked) (as salt: oxalate) [Example 420, {[3-(6-aminohex-1-ynyl)phenyl]benzothiazol-2-yl-methyl}(1-methylpiperidin-4-yl)amine] belongs 80 °C; to `CN1CCC(OC(c2cccc(N3CCC(N(C)C)C3)c2)c2nc3ccccc3s2)CC1` (centres unmarked) (as salt: oxalate) [Example 484], 106 °C.
The figure for `CN1CCC(OC(c2cccc(CCCCCNC(=N)N)c2)c2nc3ccccc3s2)CC1` (centres unmarked) (as salt: hydrochloride) [Example 365, N-(5-{3-[benzothiazol-2-yl(1-methylpiperidin-4-yloxy)methyl]phenyl}pentyl)guanidine] is 90 °C; for `CN1CCC(OC(c2cccc(OC3CCC(N)C3)c2)c2nc3ccccc3s2)CC1` (centres unmarked) (as salt: oxalate) [Example 453] it is 91 °C.
`CN1CCC(OC(c2cccc(OCc3ccccc3)c2)c2nc3ccccc3s2)CC1` (centres unmarked) (as salt: oxalate) [Example 45, 2-[(3-benzyloxyphenyl)(1-methylpiperidin-4-yloxy)methyl]benzothiazole] registered a melting point of 52 °C.
The figure for `CSc1cccc(-c2cccc(C(OC3CCN(C)CC3)c3nc4ccccc4[nH]3)c2)c1` (centres unmarked) (as salt: oxalate) [Example 116, 2-[(1-methylpiperidin-4-yloxy)(3′-methylsulfanylbiphenyl-3-yl)methyl]-1H-benzimidazole] is 80 °C; for `CN1CCC(NC(c2cccc(OCc3cc(F)ccc3F)c2)c2nc3ccccc3[nH]2)CC1` (centres unmarked) (as salt: oxalate) [Example 149, {(1H-benzimidazol-2-yl)[3-(2,5-difluoro-benzyloxy)phenyl]methyl}(1-methylpiperidin-4-yl)amine] it is 159 °C; for `CN1CCC(OC(c2cccc(OCCCn3nccn3)c2)c2nc3ccccc3s2)CC1` (centres unmarked) (as salt: oxalate) [Example 349, 2-{(1-methylpiperidin-4-yloxy)[3-(3-[1,2,3]triazol-2-yl-propoxy)phenyl]methyl}benzothiazole] it is 74 °C.
